From patent publication US9663486B2, “Selectively substituted quinoline compounds” (EISAI R&D MANAGEMENT CO., LTD., priority 2013, dated 2017)

How the values were obtained:
[1] = molecular target: Human TLR4 (Homo sapiens, UniProt O00206); assay: Human PBMC cell-based assay, LPS stimulation, IL-6; parameters: endogenous in cells; host or cells: primary human PBMC from healthy donors; settings: Hu PBMC; ligand LPS
Protocol: (§1) Human peripheral blood mononuclear cells (PBMC) were isolated from freshly-drawn heparinized (10 USP units/ml, Hospira, Lakeforest, Ill.) healthy donor whole blood by density gradient (Histopaque® 1077, Sigma, Inc., St. Louis, Mo.). Briefly, 25 ml blood was diluted with 15 ml PBS (without Ca^2+, Mg^2+) in a 50 ml conical tube, and 12 ml Histopaque was underlaid using a spinal needle. Tubes were centrifuged for 45 minutes at 1200 rpm (350×g), and PBMC were collected from the buffy coat. Cells were then washed twice in PBS, and red blood cells were lysed by suspension in 5 ml ammonium chloride solution (1× Red Blood Cell Lysis Buffer, eBioscience) for 5 minutes at room temperature. […]
(§2) Antagonist compounds solubilized and serial diluted in 100% DMSO were added in triplicate to cells to yield a final concentration of 0.1% DMSO (v/v). […] Cell culture supernatants were collected, and levels of various human cytokines were assessed as indicated by standard ELISA procedure according to the manufacturer's recommended protocol (BD Biosciences, Inc., San Diego, Calif.).

[2] = molecular target: T1, Human TLR9 (Homo sapiens, UniProt Q9NR96); assay: Human PBMC cell-based assay, CpG-ODN stimulation, IL-6; parameters: endogenous in cells; host or cells: primary human PBMC from healthy donors; settings: Hu PBMC; ligand CpG-ODN
T1 sequence (Q9NR96 26-1032): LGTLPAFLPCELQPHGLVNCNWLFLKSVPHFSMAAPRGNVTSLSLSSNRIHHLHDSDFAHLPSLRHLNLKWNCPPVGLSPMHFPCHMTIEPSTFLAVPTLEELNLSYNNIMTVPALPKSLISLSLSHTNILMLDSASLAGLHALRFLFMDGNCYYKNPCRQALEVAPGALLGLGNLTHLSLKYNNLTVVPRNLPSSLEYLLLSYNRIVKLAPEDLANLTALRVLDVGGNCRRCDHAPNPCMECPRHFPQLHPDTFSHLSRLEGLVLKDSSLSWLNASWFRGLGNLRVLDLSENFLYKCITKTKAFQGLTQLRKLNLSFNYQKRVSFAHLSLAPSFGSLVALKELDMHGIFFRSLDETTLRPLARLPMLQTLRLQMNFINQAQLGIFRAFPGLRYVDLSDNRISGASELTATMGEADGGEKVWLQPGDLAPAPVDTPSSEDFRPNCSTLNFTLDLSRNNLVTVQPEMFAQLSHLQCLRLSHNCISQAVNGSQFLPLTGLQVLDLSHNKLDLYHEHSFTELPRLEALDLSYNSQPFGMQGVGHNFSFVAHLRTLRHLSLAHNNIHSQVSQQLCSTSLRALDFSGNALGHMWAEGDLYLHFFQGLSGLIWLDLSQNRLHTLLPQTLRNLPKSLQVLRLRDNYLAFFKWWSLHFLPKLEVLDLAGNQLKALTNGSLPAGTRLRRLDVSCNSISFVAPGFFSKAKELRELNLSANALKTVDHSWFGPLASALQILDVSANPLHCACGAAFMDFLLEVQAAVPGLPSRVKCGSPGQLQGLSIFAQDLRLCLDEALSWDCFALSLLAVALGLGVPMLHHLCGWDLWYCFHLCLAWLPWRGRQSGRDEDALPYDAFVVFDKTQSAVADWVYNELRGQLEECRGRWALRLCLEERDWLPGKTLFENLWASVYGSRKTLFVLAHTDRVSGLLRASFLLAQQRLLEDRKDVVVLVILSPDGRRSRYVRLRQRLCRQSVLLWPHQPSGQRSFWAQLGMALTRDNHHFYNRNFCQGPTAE
Protocol: as §1, §2

[3] = test system: Human TLR7/8; assay: Human PBMC cell-based assay, TLR7/8 (RNA-Ig), cytokine ELISA; settings: PBMC assay data summary; ligand and analyte not given; read-out: Human PBMCs IC50
Protocol: Human peripheral blood mononuclear cells (PBMC) were isolated from freshly-drawn heparinized (10 USP units/ml, Hospira, Lakeforest, Ill.) healthy donor whole blood by density gradient (Histopaque® 1077, Sigma, Inc., St. Louis, Mo.). Briefly, 25 ml blood was diluted with 15 ml PBS (without Ca^2+, Mg^2+) in a 50 ml conical tube, and 12 ml Histopaque was underlaid using a spinal needle. Tubes were centrifuged for 45 minutes at 1200 rpm (350×g), and PBMC were collected from the buffy coat. Cells were then washed twice in PBS, and red blood cells were lysed by suspension in 5 ml ammonium chloride solution (1× Red Blood Cell Lysis Buffer, eBioscience) for 5 minutes at room temperature. After a final wash in PBS, PBMC were resuspended at a final concentration of 2×10^6/ml in RPMI-1640 media with L-glutamine (Invitrogen) and supplemented with 25 mM HEPES (Mediatech, Inc, Manassas Va.), 10% fetal bovine serum (HyClone, Logan, Utah), and Penicillin-Streptomycin-Glutamine (Mediatech) and plated at 100 ul/well (2×10^5 cells/well) in tissue culture treated 96-well plates (Falcon).
Antagonist compounds solubilized and serial diluted in 100% DMSO were added in triplicate to cells to yield a final concentration of 0.1% DMSO (v/v). Hydroxychloroquine (Acros Organics) solubilized and serial diluted in PBS was added in triplicate to cells. PBMC were incubated with antagonist compounds or HCQ for 30 minutes at 37° C., 5% CO2 before adding various TLR agonist reagents in 100 ul complete media per well as follows (final concentrations indicated): R848 (Resiquimod; GLSynthesis, Worcester, Mass.) at 1 uM for TLR7 and TLR8, Pam3CSK4 (InvivoGen) at 50 ng/ml for TLR1/2, LPS (Sigma) at 10 ng/ml for TLR4, and CpG-2216 (InvivoGen) at 5 ug/ml for TLR9. […] The resulting “RNA-Ig” stimulus was incubated at room temperature for 15-30 minutes before adding to cells. PBMC were incubated with the various TLR agonists for 20 hours at 37° C., 5% CO2. Cell culture supernatants were collected, and levels of various human cytokines were assessed as indicated by standard ELISA procedure according to the manufacturer's recommended protocol (BD Biosciences, Inc., San Diego, Calif.).

[4] = molecular target: T2, mouse TLR7 (Mus musculus, UniProt P58681); assay: Short-term in vivo (STIV) assay, plasma IL-6 after R848; settings: plasma IL-6 after R848 s.c., BALB/c mice
T2 construct: tissue Jackson Labs; host or cells: live female BALB/c mice
T2 sequence (P58681 27-1050): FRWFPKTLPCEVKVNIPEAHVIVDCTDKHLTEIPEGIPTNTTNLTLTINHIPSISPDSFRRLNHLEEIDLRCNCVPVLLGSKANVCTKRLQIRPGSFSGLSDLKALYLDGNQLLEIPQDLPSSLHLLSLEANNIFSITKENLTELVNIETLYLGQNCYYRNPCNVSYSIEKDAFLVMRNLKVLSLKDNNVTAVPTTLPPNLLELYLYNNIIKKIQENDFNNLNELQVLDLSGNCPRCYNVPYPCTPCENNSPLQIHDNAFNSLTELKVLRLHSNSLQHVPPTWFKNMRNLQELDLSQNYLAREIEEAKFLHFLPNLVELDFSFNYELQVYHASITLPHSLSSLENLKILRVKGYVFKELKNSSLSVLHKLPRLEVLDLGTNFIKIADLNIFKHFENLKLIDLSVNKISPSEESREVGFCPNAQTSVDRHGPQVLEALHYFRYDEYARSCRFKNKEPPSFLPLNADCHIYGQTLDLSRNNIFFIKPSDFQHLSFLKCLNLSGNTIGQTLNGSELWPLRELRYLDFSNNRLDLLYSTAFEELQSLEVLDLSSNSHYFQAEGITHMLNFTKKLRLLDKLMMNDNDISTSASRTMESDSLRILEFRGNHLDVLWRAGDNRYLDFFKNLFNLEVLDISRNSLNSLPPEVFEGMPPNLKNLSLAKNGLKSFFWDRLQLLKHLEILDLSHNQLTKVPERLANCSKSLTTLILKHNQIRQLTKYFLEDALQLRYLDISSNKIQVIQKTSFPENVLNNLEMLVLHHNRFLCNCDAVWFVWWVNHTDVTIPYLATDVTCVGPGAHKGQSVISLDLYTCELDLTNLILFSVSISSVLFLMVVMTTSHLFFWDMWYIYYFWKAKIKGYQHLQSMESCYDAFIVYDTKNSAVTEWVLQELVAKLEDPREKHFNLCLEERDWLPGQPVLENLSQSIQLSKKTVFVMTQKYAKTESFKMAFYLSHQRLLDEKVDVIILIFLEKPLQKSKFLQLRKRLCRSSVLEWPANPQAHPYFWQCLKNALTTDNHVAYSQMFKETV
Protocol: To assess compound potency in vivo against mouse TLR7, a short-term in vivo (STIV) assay was utilized. Briefly, mice were orally dosed with compounds and at various time points afterwards were injected subcutaneously with agonist R848 to stimulate TLR7. The plasma IL-6 level following R848 stimulation was then measured by ELISA to assess compound potency and duration-of-action. […] Therefore, the activity of compounds in the STIV assay can be confidently attributed to their modulation of the TLR7 pathway.
Six to eight week old female BALB/c mice (Jackson Labs, Bar Harbor, Me.) were dosed by oral gavage in 200 ul volume with antagonist compounds formulated in 0.5% aqueous methyl-cellulose (Sigma, St. Louis, Mo.). At various time points afterwards, mice were injected subcutaneously (s.c.) in 100 ul volume with 15 ug R848 (Resiquimod; GLSynthesis, Worcester, Mass.) to stimulate TLR7. Blood plasma was collected by cardiac puncture, and levels of IL-6 at 1.5 hours after TLR7 stimulation were then assessed by standard ELISA procedure according to the manufacturer's recommended protocol (R&D Systems).

[5] = 13 hr after oral dose, 33 mg/kg
[6] = 13 hr after oral dose, 100 mg/kg
[7] = 13 hr after oral dose, 300 mg/kg
[8] = 24 hr after oral dose, 100 mg/kg
[9] = 24 hr after oral dose, 300 mg/kg

Chain of Human TLR4 (O00206 24-839): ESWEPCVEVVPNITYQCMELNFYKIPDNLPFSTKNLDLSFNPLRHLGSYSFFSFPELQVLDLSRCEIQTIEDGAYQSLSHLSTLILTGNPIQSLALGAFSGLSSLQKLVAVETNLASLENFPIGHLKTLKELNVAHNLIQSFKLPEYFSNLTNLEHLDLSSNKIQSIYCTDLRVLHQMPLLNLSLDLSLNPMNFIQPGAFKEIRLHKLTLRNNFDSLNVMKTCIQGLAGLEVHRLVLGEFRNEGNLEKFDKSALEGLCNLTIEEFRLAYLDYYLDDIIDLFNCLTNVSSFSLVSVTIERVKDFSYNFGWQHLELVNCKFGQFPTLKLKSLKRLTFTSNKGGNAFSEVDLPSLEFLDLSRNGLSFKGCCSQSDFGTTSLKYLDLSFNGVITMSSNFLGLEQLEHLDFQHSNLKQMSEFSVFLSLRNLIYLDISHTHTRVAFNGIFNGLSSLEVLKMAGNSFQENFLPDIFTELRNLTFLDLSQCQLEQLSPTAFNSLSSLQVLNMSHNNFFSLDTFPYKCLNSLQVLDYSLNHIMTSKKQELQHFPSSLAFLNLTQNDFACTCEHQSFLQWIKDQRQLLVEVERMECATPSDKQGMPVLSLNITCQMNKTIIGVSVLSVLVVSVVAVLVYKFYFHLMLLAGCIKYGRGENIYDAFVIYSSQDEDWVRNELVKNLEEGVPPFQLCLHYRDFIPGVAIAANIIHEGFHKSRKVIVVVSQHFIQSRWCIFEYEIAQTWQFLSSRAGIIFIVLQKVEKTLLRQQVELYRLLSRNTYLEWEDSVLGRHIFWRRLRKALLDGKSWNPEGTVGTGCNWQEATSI
Chain of Human TLR4 (Q9Y6Y9 19-160 partner): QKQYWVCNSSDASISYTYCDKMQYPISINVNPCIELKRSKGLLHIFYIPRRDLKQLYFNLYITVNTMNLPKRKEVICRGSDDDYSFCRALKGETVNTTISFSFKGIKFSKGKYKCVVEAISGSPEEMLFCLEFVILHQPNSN

Row | SMILES | IC50 [1] [nM] | IC50 [2] [nM] | IC50 [3] [nM] | % Suppression vs. Vehicle ([4]; 6 h after oral dose, 100 mg/kg) [%] | % Suppression vs. Vehicle [4, 5] [%] | % Suppression vs. Vehicle [4, 6] [%] | % Suppression vs. Vehicle [4, 7] [%] | % Suppression vs. Vehicle [4, 8] [%] | % Suppression vs. Vehicle [4, 9] [%] | % Suppression vs. Vehicle ([4]; 6 h after oral dose, 33 mg/kg) [%] | % Suppression vs. Vehicle ([4]; 24 hr after oral dose, 33 mg/kg) [%]
1 | CCN(CCO)CCCC(C)Nc1ccnc2cc(Cl)ccc12 (centres unmarked) [HCQ, Hydroxychloroquine] | > 10000 | 150 to 300 |  |  |  |  |  |  |  |  | 
2 | CC1CC(NC(=O)C2(C)COC2)CN(c2ccc(C#N)c3ncccc23)C1 (centres unmarked) [ER-899072] |  |  | 8 | 94 | 34 | 72 | 100 | 0 | 78 |  | 
3 | CNCC(=O)NC1CC(C)CN(c2ccc(C#N)c3ncccc23)C1 (centres unmarked) [ER-897608] |  |  | 5 |  | 56 | 84 | 98 | 22 | 95 | 98 | 35
4 | CC1CC(NC2CCOC2)CN(c2ccc(C#N)c3ncccc23)C1 (centres unmarked) [ER-899544] |  |  | 5 | 97 |  | 94 |  |  |  |  | 
5 | C[C@H]1C[C@@H](NS(=O)(=O)CCCN(C)C)CN(c2ccc(C#N)c3ncccc23)C1 [ER-899672] |  |  | 3 | 89 |  | 83 |  |  |  |  | 
6 | CC1CC(NC2COC2)CN(c2ccc(C#N)c3ncccc23)C1 (centres unmarked) [ER-899541] |  |  | 15 | 97 |  | 92 |  |  |  |  | 
